Laboratory results from PubChem BioAssay AID200 (DTP/NCI, 2004).
Where “and” joins values, the source holds several entries; their conditions need not be identical. Identical values can stand only once. Inconclusive results and toxic doses are left out. Where a SMILES comes first, the peptide text is derived from it. [ ]: non-standard residue; d: D form. The star is where a group is joined. Cbz = O=C(OCc1ccccc1)*; Nva = CCC[CH](N)C(=O)O

Test system: B6C3F1 mice, B16 melanoma ip, median survival T/C
Experiment: NCI In Vivo Anticancer Drug Screen. Data for tumor model B16 Melanoma (intraperitoneal) in B6C3F1 mice
Conditions: endpoint: median survival time, schedule: Q01DX009 (ip), higher = longer survival
Outline: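 Readout: survival or tumor size in treated mice relative to vehicle controls (T/C). Model uses transplantable tumors grown in mice.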

[1] = dose: 12.5 mg/kg/injection, vehicle: saline with Tween-80
[2] = dose: 25.0 mg/kg/injection, vehicle: saline with Tween-80
[3] = dose: 50.0 mg/kg/injection, vehicle: saline with Tween-80
[4] = dose: 100.0 mg/kg/injection, vehicle: saline with Tween-80
[5] = dose: 200.0 mg/kg/injection, vehicle: saline with Tween-80
[6] = dose: 100.0 mg/kg/injection, vehicle: Klucel (hydroxypropylcellulose) (HPC)
[7] = dose: 200.0 mg/kg/injection, vehicle: Klucel (hydroxypropylcellulose) (HPC)
[8] = dose: 400.0 mg/kg/injection, vehicle: Klucel (hydroxypropylcellulose) (HPC)

Cc1cn(C2CC(O)C(CO)O2)c(=O)[nH]c1=O (stereo not given)
T/C (dose: 12.5 mg/kg/injection, vehicle: saline): 99 % of control
T/C (dose: 25.0 mg/kg/injection, vehicle: saline): 98 % of control
T/C (dose: 50.0 mg/kg/injection, vehicle: saline): 102 % of control
T/C (dose: 100.0 mg/kg/injection, vehicle: saline): 98 % of control
T/C (dose: 200.0 mg/kg/injection, vehicle: saline): 98 % of control
T/C (dose: 400.0 mg/kg/injection, vehicle: saline): 115 % of control

CC1(C)CC1(Br)Br
T/C (dose: 6.25 mg/kg/injection, vehicle: saline with Tween-80): 100 % of control
T/C [1]: 93 % of control
T/C [2]: 104 % of control
T/C [3]: 97 % of control
T/C [4]: 100 % of control
T/C [5]: 92 % of control

CCCCC(CC)(CC(=N)C(C)(C)C)c1ccccc1 (stereo not given)
T/C (dose: 25.0 mg/kg/injection, vehicle: saline + Tween-80 + alcohol): 104 % of control
T/C (dose: 50.0 mg/kg/injection, vehicle: saline + Tween-80 + alcohol): 96 % of control

Cc1c2cc[n+](C)cc2c(C)c2c1[nH]c1ccc(O)cc12
T/C (dose: 0.12 mg/kg/injection, vehicle: water): 107 % of control
T/C (dose: 0.13 mg/kg/injection, vehicle: water): 117 % of control
T/C (dose: 1.25 mg/kg/injection, vehicle: saline): 123 % of control
T/C (dose: 2.5 mg/kg/injection, vehicle: saline): 116 % of control

O=[N+]([O-])O.O=[N+]([O-])O.[NH-]C1CCCCC1[NH-].[Pt+2] (stereo not given)
T/C (dose: 0.25 mg/kg/injection, vehicle: other): 123 % of control
T/C (dose: 1.0 mg/kg/injection, vehicle: other): 163 % of control

CCCC(NC(=O)OCc1ccccc1)C(=O)NC(CO)C(=O)O (stereo not given) (Cbz-[Nva]-Ser-OH; configuration not given here)
T/C [6]: 102 % of control
T/C [7]: 100 % of control
T/C [8]: 103 % of control

COc1ccc(OCC(O)CN2CCN(c3ccc(Cl)cc3)CC2)cc1 (stereo not given)
T/C [1]: 122 % of control
T/C [2]: 122 % of control
T/C [3]: 87 % of control
T/C [4]: 89 % of control and 96 % of control

CC(C)n1cc2c(N)ncnc2n1
T/C [2]: 93 % of control
T/C [3]: 91 % of control
T/C [4]: 86 % of control

CCCCCCNc1nc(NCCCCCC)c2[nH]c(NCCCCCC)nc2n1
T/C [2]: 107 % of control
T/C [3]: 101 % of control
T/C [4]: 96 % of control
T/C [5]: 91 % of control

CC(C)(C)OC(=O)N(C=O)C(Cc1c[nH]c2ccccc12)C(=O)O (stereo not given)
T/C [6]: 94 % of control
T/C [7]: 88 % of control
T/C [8]: 86 % of control

COC(CCC(C)C1OC23CC(OC(=O)CC(C(C)O)OC(=O)CC(O)(O2)C(C)CC3(C)C)C1C)c1cccc(O)c1 (stereo not given)
T/C (dose: 12.5 micrograms/kg/injection, vehicle: saline + Tween-80 + alcohol): 96 % of control
T/C (dose: 25.0 micrograms/kg/injection, vehicle: saline + Tween-80 + alcohol): 97 % of control
T/C (dose: 50.0 micrograms/kg/injection, vehicle: saline + Tween-80 + alcohol): 104 % of control
T/C (dose: 100.0 micrograms/kg/injection, vehicle: saline + Tween-80 + alcohol): 102 % of control

Cc1cc2c(C(C)C)c(O)c(O)c(C=O)c2c(O)c1-c1c(C)cc2c(C(C)C)c(O)c(O)c(C=O)c2c1O
T/C (dose: 0.38 mg/kg/injection, vehicle: saline with Tween-80): 97 % of control
T/C (dose: 0.75 mg/kg/injection, vehicle: saline with Tween-80): 100 % of control
T/C (dose: 1.5 mg/kg/injection, vehicle: saline with Tween-80): 98 % of control
T/C (dose: 3.0 mg/kg/injection, vehicle: saline with Tween-80): 106 % of control
